Measured values published in BindingDB's records for PubMed 9808667 (Dupont Pharmaceuticals, 1998).
Square brackets hold non-standard residues; d marks the D form. Peptide text beside a SMILES is read from it.

Target: T1, Galanin receptor type 1 (Homo sapiens, UniProt P47211)
T1 sequence (P47211 whole entry): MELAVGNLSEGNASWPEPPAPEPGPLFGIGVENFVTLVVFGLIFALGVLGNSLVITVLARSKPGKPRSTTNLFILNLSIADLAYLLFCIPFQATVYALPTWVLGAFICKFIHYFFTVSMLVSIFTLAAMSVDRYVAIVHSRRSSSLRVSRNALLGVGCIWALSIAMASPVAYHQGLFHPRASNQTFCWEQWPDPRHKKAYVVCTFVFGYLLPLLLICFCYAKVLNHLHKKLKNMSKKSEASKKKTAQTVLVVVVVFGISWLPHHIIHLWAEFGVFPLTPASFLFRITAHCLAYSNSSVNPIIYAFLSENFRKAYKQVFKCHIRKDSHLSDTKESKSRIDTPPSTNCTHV

Work on CC(C)C[C@H](NC(=O)[C@H](CC(C)C)NC(=O)[C@@H](Cc1c[nH]c2ccccc12)NC(=O)[C@H](Cc1ccccc1)NC(=O)[C@@H](Cc1c[nH]c2ccccc12)NC(=O)[C@H](CCC(N)=O)NC(=O)[C@H](CCC(N)=O)NC(=O)[C@@H]1CCCN1C(=O)[C@H](CCCCN)NC(=O)[C@@H]1CCCN1C(=O)[C@@H](CCCNC(=N)N)NC(=O)[C@@H]1CCCN1C(=O)CNC(=O)[C@H](CC(C)C)NC(=O)[C@H](CC(C)C)NC(=O)[C@H](Cc1ccc(O)cc1)NC(=O)CNC(=O)[C@H](C)NC(=O)[C@H](CO)NC(=O)[C@H](CC(N)=O)NC(=O)[C@H](CC(C)C)NC(=O)[C@@H](NC(=O)[C@H](Cc1c[nH]c2ccccc12)NC(=O)CN)[C@@H](C)O)C(N)=O [Gal(1-13)-Std I] (H-GWTLNSAGYLLGP[dR]PKPQQ[dW]F[dW]LL-NH2) yielded a Ki of 685 nM.
